In PubChem BioAssay (NCI):
Values joined by “and” are separate entries in the source; they are usually repeats but may differ in a detail not shown here. Identical values can stand only once.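 Each compound was tested at five concentrations against cells in 96-well plates for 48 hours. GI50 is the concentration that inhibits growth by half. The concentration for full growth arrest is given as TGI.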

What was measured:
Assay in all cases: inhibition of tumour cell growth, NCI panel, 48 h
HCC-2998 colon = test system: HCC-2998 colon
U251 CNS = test system: U251 CNS
MCF7 breast = test system: MCF7 breast
SK-MEL-2 melanoma = test system: SK-MEL-2 melanoma
CCRF-CEM leukemia = test system: CCRF-CEM leukemia
SW-620 colon = test system: SW-620 colon
SK-MEL-28 melanoma = test system: SK-MEL-28 melanoma
NCI/ADR-RES ovarian = test system: NCI/ADR-RES ovarian
HCT-15 colon = test system: HCT-15 colon
RXF 393 renal = test system: RXF 393 renal

Compound | TGI (HCC-2998 colon) [µM] | TGI (U251 CNS) | TGI (MCF7 breast) [µM] | TGI (SK-MEL-2 melanoma) | TGI (CCRF-CEM leukemia) | TGI (SW-620 colon) [µM] | TGI (SK-MEL-28 melanoma) | TGI (NCI/ADR-RES ovarian) [µM] | TGI (HCT-15 colon) [µM] | TGI (RXF 393 renal) | GI50 (U251 CNS) [nM] | GI50 (SK-MEL-2 melanoma) [nM] | GI50 (CCRF-CEM leukemia) [nM] | GI50 (SW-620 colon) [nM] | GI50 (SK-MEL-28 melanoma) [nM] | GI50 (HCT-15 colon) [µM] | GI50 (HCC-2998 colon) [nM] | GI50 (RXF 393 renal) [nM] | GI50 (NCI/ADR-RES ovarian) [nM] | GI50 (MCF7 breast) [µM]
Cc1cc(Oc2cnc(=O)[nH]c2)cs1 | > 100 | > 100 µM | > 100 | > 100 µM | > 100 µM | > 100 | > 100 µM | > 100 | > 100 |  |  |  |  |  |  |  |  |  |  | 
O=[P+](O)c1cc2ccccc2c2ccccc12 | > 100 | > 100 µM |  |  | > 100 µM | > 100 | > 100 µM |  |  | > 100 µM |  |  |  |  |  |  |  |  |  | 
CC(=O)OC(C)(C)/C=C/C(=O)[C@](C)(O)[C@H]1[C@H](O)C[C@@]2(C)[C@@H]3CC=C4[C@@H](C[C@H](O)C(=O)C4(C)C)[C@]3(CO)C(=O)C[C@]12C | 15.1 | 0.592 µM and 1.52 µM |  | 0.416 µM and 0.104 µM | 0.96 µM and 2.62 µM | 20 | 0.697 µM and 0.254 µM |  | > 100 | 0.405 µM and 0.458 µM | 267 | 33.9 | 95.9 | 159 | 34 | 0.351 |  |  |  | 
CC1=C(C(=O)Nc2ccc([N+](=O)[O-])cc2)C(c2ccccc2O)C(C(=O)Nc2ccc([N+](=O)[O-])cc2)=C(C)N1 | 27.2 | 61.1 µM |  | 31.8 µM | 61.7 µM | 94.1 | 61.5 µM |  |  | 45.9 µM |  |  |  |  |  |  |  |  |  | 
Cc1ccc(-c2cc(=O)c3cc(C)c(C)c(C(=O)O)c3o2)cc1 | > 100 | > 100 µM |  | > 100 µM | > 100 µM | > 100 | > 100 µM |  | > 100 |  |  |  |  |  |  |  |  |  |  | 
Cc1ccc(C(=O)/C(=C\c2ccc([N+](=O)[O-])cc2)S(=O)Cc2ccc(F)cc2)cc1 (configuration not stated) | 3.24 | 3.22 µM |  | 5.2 µM | > 100 µM | 3.26 | 3.59 µM | 5.97 | 3.5 | 3.28 µM | 1660 | 2100 | 752 | 1560 | 1820 | 1.45 | 1770 | 1780 | 2280 | 
NC(=O)C(=Cc1ccc(CP(=O)(O)O)cc1)C(N)=O | > 100 | > 100 µM |  | > 100 µM |  | > 100 | > 100 µM |  | > 100 | > 100 µM |  |  |  |  |  |  |  |  |  | 
O=C1C2CC=CCC2C(=O)C12CCc1ccccc12 (configuration not stated) | > 100 | > 100 µM |  |  | > 100 µM | > 100 | > 100 µM |  | > 100 | > 100 µM |  |  |  |  |  |  |  |  |  | 
CC1(C)N=C(N)N=C(N)N1c1ccc(CCc2ccc(Cl)cc2S(=O)(=O)F)c(Cl)c1 | 45.9 | 20.6 µM | 18.9 |  | 44.4 µM | 17.7 | 23.4 µM | > 100 | > 100 | > 100 µM | 4420 |  | 6730 | 2660 | 7990 | 92.8 | 11800 | 23000 | > 100000 | 3.64
CN(C(=O)C12C3(C(=O)C(C)(C)C)C4C5(C#N)C3C1(C(=O)C(C)(C)C)C5C42C(=O)C(C)(C)C)C(C)(C)C (configuration not stated) | > 50 | > 50 µM |  |  | > 50 µM | > 50 | > 50 µM |  | > 50 |  |  |  |  |  |  |  |  |  |  | 
COC1=C2C[C@H](O)C(C)C[C@@]2(OC)OC1=O (some centres not stated) | > 100 | > 100 µM |  | > 100 µM | > 100 µM | > 100 | > 100 µM |  | > 100 | > 100 µM |  |  |  |  |  |  |  |  |  | 
O=C(O)C1C(=O)Oc2c(cccc2[N+](=O)[O-])C1O (configuration not stated) | > 100 | > 100 µM |  | > 100 µM | > 100 µM | > 100 | > 100 µM | > 100 | > 100 | > 100 µM |  |  |  |  |  |  |  |  |  | 
O=c1nc(NC(c2ccccc2)(c2ccccc2)c2ccccc2)ccn1CCO | > 100 | > 100 µM |  | > 100 µM |  | > 100 | > 100 µM |  | > 100 | > 100 µM |  |  |  |  |  |  |  |  |  | 
CCCCCCCC(=O)OCC1OC(n2cc(F)c(=O)[nH]c2=O)C(NC(=O)OCc2ccccc2)C(O)C1O (configuration not stated) | 52.2 | > 100 µM |  | 53.5 µM | > 100 µM | > 100 | > 100 µM |  | > 100 | > 100 µM |  |  |  |  |  |  |  |  |  | 
O=C1[C@H]2ON(c3ccccc3)C(c3ccccc3F)[C@H]2C(=O)N1c1ccc(Cc2ccc(N3C(=O)[C@@H]4ON(c5ccccc5)C(c5ccccc5F)[C@@H]4C3=O)cc2)cc1 (some centres not stated) | > 100 | > 100 µM |  | > 100 µM | > 100 µM | > 100 | > 100 µM |  | > 100 | > 100 µM |  |  |  |  |  |  |  |  |  | 
CCOc1ccccc1N1C(=O)C(=O)C(c2nc3ccccc3o2)/C(=N\N)C1=O (configuration not stated) | > 100 | > 100 µM |  | > 100 µM | > 100 µM | > 100 | > 100 µM |  | > 100 | > 100 µM |  |  |  |  |  |  |  |  |  | 
COC(=O)c1ccc(NC(=O)c2cc(OC)c(OC)c(OC)c2)cc1 | 6.67 |  |  | > 100 µM | > 100 µM | > 100 | > 100 µM |  |  | 77.2 µM |  |  |  |  |  |  |  |  |  | 
COc1cc(F)cc([C@@H](CO)NC(=O)[C@@H](C)N2Cc3ccc(-c4nc(NC5CCOCC5)ncc4Cl)cc3C2=O)c1 | 57.5 | > 100 µM | 49.6 |  | > 92.8 µM | > 100 | 0.0318 µM | 78.2 | > 86.7 | 19.8 µM | 8720 |  | 17100 | 76.1 | < 10 | 6.08 | 12.5 | 205 | 16300 | 9.67
O=C1C(Cl)=C(Nc2cccc(O)c2)C(=O)N1Cc1ccc(Cl)cc1 |  | 26.9 µM | 14.6 | 9.36 µM | > 100 µM | 24.8 | 23 µM | 10.2 |  | > 100 µM | 1860 | 1830 | 2980 | 2560 | 4930 |  |  | 3950 | 1580 | 2.75
CCOC(=O)[C@H]1CSC[C@@H](C(=O)OC)N1 | > 100 | > 100 µM |  | > 100 µM | > 100 µM | > 100 | > 100 µM |  | > 100 | > 100 µM |  |  |  |  |  |  |  |  |  | 
C/C(CC(=O)Nc1ccc(Cl)cc1)=N\NC(=O)C[n+]1ccccc1 | > 100 | > 100 µM |  | > 100 µM | > 100 µM | > 100 | > 100 µM |  |  | > 100 µM |  |  |  |  |  |  |  |  |  | 
